From ChEMBL document CHEMBL3785063 (Eur J Clin Pharmacol, 1981)

Assays:
[1] = Drug excretion in arrhythmia patient (7 patients) assessed as unchanged compound level in urine at 400 mg, iv after 4 days 400 mg, po dose administered followed continuous oral therapy with 200 mg, tid measured 2 hrs after iv drug challenge by HPLC analysis; conditions: human
[2] = Drug concentration in arrhythmia patient (7 patients) serum at 400 mg, iv after 4 days 400 mg, po dose administered followed continuous oral therapy with 200 mg, tid measured after 1 month by HPLC analysis; conditions: human
[3] = Tmax in arrhythmia patient (7 patients) at 400 mg, iv after 4 days 400 mg, po dose administered followed continuous oral therapy with 200 mg, tid by HPLC analysis; conditions: human, in vivo
[4] = Drug concentration in arrhythmia patient (7 patients) serum at 400 mg, iv after 4 days 400 mg, po dose administered followed continuous oral therapy with 200 mg, tid measured after 24 hrs by HPLC analysis; conditions: human
[5] = Drug concentration in arrhythmia patient (7 patients) serum at 400 mg, iv after 4 days 400 mg, po dose administered followed continuous oral therapy with 200 mg, tid measured after 48 hrs by HPLC analysis; conditions: human
[6] = Drug concentration in arrhythmia patient (7 patients) serum at 400 mg, iv after 4 days 400 mg, po dose administered followed continuous oral therapy with 200 mg, tid measured after 1 week by HPLC analysis; conditions: human
[7] = Drug uptake in arrhythmia patient (7 patients) serum at 400 mg, iv after 4 days 400 mg, po dose administered followed continuous oral therapy with 200 mg, tid measured 2 hrs after iv drug challenge by HPLC analysis; conditions: human

CCCCc1oc2ccccc2c1C(=O)c1cc(I)c(OCCN(CC)CC)c(I)c1 [AMIODARONE]
concentration at 2 h [1]: 100 ng/mL
concentration at 96 h [2]: 1560 ng/mL
Tmax at 96 h [3]: 7.3 h
concentration at 24 h [4]: 610 ng/mL
concentration at 48 h [5]: 760 ng/mL
concentration at 1 week [6]: 1180 ng/mL
concentration at 2 h [7]: 2000 ng/mL
